We go through two compounds from publication PMC5481817, “Developing Targeted Hybrid Imaging Probes by Chelator Scaffolding” (Bioconjugate chemistry, 2017).

In test [1] the test system is M21-L (αvβ3-negative) cells. Description: Fluorescence measured cell specificity, M21-L. In kind it is cell-based, human. Particulars: 2 h incubation, 3 nM ligand. The protocol: (§1) Fluorescence assays were conducted similarly to the internalization assays except for using lower cell numbers and determining only the cellbound fraction. Briefly, A431-CCK2R, M21, and M21-L cells were diluted in corresponding media to a density of 2 × 10^6 cells/mL. Aliquots of 0.5 mL were transferred to Eppendorf tubes—six technical replicates for A431-CCK2R unblocked and blocked and M21/M21-L, respectively—and treated in the same manner as described above. The nonradiolabeled particular ligand was added to a final concentration of 3 nM and the tubes were kept in an incubator (Incubator hood TH15 and Compact shaker KS-15 control, Edmund Bühler GmbH, Hechingen, Germany) at 37 °C for 2 h under vigorously shaking (420/min). After centrifugation (2 min, 5000 rpm) washing steps were performed as mentioned before. […] Fluorescence intensity was measured with Tecan Infinite 200 PRO series multiplate reader (Tecan Trading AG, Switzerland) by using Tecan Icontrol 1.1 software. Parameters were set as follows: Fluorescence Top reading; excitation/emission wavelength 740/790 nm; excitation bandwidth 9 nm; emission bandwidth 20 nm; gain optimal; number of flashes 25; integration time 25 μs. Results were calculated and expressed as percentage of cell-bound fluorescence in relation to the standards sample.

Test [2] deals with mice bearing U-87MG tumor xenografts. Put plainly: Near-infrared fluorescence imaging, U-87MG xenografts. In kind it is in vivo, mouse. The protocol: All animal experiments were conducted in accordance with regulations and guidelines of the Czech Animal Protection Act (No. 246/1992), and with the approval of the Czech Ministry of Education, Youth, and Sports (MSMT-22421/2013–12), and the institutional Animal Welfare Committee of the Faculty of Medicine and Dentistry of Palacky University in Olomouc. The studies were performed using female 8–10-week-old athymic BALB/c nude mice (Envigo, Horst, The Netherlands). […]
Tumor xenografts were established near the front shoulder of mice by subcutaneous injection of 5 × 10^6 cells (U-87 MG) or 2 × 10^6 cells (A431-CCK2R) and the same amount of A431-mock cells as a control in 200 μL appropriate medium and Matrigel (1:1). […] Tumors, blood, muscle tissue, and organs were extracted, weighed, and activity uptake of the samples was measured in the gamma counter. Results were expressed as percentage of injected dose per gram tissue (% ID/g). […] After reconstruction, acquired data was viewed and analyzed with PMOD software (PMOD Technologies Ltd., Zurich, Switzerland). […] Near-infrared in vivo fluorescence imaging was performed with an In-Vivo MS FX PRO small animal imaging system (Bruker Biospin Corporation, Woodbridge, CT, USA). […] An appropriate filter set (excitation = 730 nm and emission = 790 nm) was used for acquiring the Sulfo-Cy7-FSC-peptide - fluorescence in vivo. […]

A further test has as its target T1, integrin αvβ3 (Homo sapiens, UniProt P05106+P06756).
T1 construct: endogenous in cells; host or cells: human melanoma M21 cells (gift from D. A. Cheresh)
Description: Integrin binding affinity assay (displacement of [125I]-c(RGDyV)) on M21 cells. Particulars: metal-free conjugate or reference peptide, radioligand [125I]-c(RGDyV), 2 h RT. The protocol: Receptor binding affinities were evaluated via a displacement cell-binding assay for metal free as well as metal bound ([^natGa]) conjugates. Binding of nonradioactive gallium was performed in analogy to the radiolabeling procedure but instead of the generator eluate a 100-fold molar excess of gallium bromide (GaBr3) dissolved in 100 μL 0.1 N HCl was used. Cells were prepared as described below and incubated with increasing concentrations [0.001–1000 nM] of competitor in triplicate. After addition of corresponding iodinated radioligand the 96-well MulitScreen Filter Plates HTS (1 μm glass fiber filter, Merck Millipore, Darmstadt, Germany) were incubated for 1 or 2 h at RT under shaking conditions (Compact shaker KS-15 control, 200/min) and after a washing step the remaining activity on the filter was measured in the γ-counter. The receptor affinity of DOTA-minigastrin11 as well as c(RGDyV) were determined under the corresponding conditions as a reference. IC50 values were calculated by using nonlinear curve fitting with following formula NS+SB/(1+x/IC50) on Origin 6.1 software (Northampton, MA, USA). A detailed description regarding iodination can be found in the Supporting Information.
Integrin binding affinity assay was adapted from Yun Wu et al.[31] Briefly, M21 cells were washed two times with phosphate buffered saline followed by suspension in binding buffer (=20 mM TRIS pH 7.4 + 150 mM NaCl + 2 mM CaCl2 + 1 mM MgCl2 + 1 mM MnCl2 0.1% BSA). 96-well plates were washed with 200 μL of 20 mM TRIS-buffer and seeded with 1 × 10^6 cells/well (10^7 cells/mL). After 10 min of incubation in the presence of the competitor {([^natGa])Sulfo-Cy7-FSC-RGD or c(RGDyV) diluted in binding buffer)} volume was adjusted to 200 μL/well by adding 50 μL of radioligand ([^125I]-c(RGDyV), 4.5 × 10^4 cpm) and the plate was left for 2 h at RT. Finally the supernatant was removed by vacuum and each well was washed three times with 200 μL ice-cold binding buffer.

The subject of test [3] is M21 (αvβ3-positive) cells. Put plainly: Fluorescence measured cell specificity, M21. In kind it is cell-based, human. Particulars: 2 h incubation, 3 nM ligand. The protocol:
as §1

The next test addresses T2, human CCK-2 receptor (Homo sapiens, UniProt P32239).
T2 construct: expressed in transfected cells; host or cells: A431 human squamous carcinoma cells (gift from L. Aloj)
T2 sequence (P32239 1-447): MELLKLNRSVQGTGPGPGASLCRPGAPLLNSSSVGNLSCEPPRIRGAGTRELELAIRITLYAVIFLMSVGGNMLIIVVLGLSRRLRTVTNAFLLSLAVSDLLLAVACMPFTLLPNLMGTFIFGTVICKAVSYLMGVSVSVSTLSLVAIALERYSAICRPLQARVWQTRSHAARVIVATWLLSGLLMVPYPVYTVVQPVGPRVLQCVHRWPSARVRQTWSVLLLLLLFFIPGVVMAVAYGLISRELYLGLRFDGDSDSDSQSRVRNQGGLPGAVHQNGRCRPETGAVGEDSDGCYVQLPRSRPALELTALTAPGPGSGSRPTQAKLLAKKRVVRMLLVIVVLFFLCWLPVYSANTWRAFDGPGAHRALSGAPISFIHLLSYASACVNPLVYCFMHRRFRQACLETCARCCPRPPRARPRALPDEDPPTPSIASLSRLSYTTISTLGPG
Further details: method as in unpublished data. The settings on record: comparison value, slight variances in experimental setting; ref unpublished data; cited from earlier work.

T1 sequence (P06756 31-889 limits assumed): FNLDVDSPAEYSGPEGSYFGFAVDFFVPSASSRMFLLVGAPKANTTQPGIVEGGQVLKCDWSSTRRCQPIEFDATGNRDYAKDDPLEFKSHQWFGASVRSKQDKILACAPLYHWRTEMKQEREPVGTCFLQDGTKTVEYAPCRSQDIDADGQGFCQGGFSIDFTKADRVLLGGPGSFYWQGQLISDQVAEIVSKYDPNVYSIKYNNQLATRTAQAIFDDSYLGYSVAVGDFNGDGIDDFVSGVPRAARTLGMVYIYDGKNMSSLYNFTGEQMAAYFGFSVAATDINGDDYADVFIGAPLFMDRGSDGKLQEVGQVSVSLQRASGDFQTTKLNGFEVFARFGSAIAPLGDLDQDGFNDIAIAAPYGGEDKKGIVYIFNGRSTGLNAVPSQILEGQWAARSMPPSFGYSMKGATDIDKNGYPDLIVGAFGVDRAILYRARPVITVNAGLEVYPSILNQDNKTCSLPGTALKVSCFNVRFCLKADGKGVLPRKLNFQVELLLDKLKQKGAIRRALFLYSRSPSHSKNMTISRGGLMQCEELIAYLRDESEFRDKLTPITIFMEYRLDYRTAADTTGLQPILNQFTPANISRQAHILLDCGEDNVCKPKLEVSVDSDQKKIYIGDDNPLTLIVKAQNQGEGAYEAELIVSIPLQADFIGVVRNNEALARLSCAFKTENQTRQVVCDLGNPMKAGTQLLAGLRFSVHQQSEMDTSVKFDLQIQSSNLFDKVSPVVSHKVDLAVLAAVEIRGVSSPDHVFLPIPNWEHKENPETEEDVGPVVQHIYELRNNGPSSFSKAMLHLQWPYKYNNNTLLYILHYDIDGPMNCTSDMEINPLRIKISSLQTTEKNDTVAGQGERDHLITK
T1 sequence (P06756 891-1048 partner limits assumed): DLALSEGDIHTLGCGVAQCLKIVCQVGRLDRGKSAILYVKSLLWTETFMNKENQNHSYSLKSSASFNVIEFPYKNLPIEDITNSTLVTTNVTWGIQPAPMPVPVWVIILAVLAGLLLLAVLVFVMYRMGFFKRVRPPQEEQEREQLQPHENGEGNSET
T1 sequence (P05106 27-788): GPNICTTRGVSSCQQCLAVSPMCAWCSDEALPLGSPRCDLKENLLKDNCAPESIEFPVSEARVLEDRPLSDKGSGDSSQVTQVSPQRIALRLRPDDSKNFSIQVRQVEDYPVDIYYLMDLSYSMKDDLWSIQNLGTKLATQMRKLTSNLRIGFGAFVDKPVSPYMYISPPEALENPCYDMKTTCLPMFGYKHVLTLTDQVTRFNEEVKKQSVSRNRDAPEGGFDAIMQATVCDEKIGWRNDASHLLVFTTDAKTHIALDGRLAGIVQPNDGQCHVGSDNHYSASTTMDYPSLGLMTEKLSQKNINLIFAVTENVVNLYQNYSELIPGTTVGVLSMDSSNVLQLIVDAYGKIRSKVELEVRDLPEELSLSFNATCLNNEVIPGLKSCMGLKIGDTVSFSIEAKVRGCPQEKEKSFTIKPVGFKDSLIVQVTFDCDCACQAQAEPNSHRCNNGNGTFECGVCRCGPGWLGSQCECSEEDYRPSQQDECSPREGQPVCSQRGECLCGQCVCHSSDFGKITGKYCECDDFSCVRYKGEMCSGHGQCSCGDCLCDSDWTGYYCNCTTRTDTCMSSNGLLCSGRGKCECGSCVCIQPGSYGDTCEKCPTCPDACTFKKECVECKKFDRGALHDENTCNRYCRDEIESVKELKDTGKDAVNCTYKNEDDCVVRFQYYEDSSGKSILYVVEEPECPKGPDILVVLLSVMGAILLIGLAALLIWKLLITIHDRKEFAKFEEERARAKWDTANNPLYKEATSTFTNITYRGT

As to `CC1=CC(=O)N(O)CCCC(NC(=O)CCN2C(=O)CC(SCCOCCOCCOCCOCCC(=O)NCCCC[C@@H]3NC(=O)[C@@H](Cc4ccccc4)NC(=O)[C@H](CC(=O)O)NC(=O)CNC(=O)[C@H](CCCNC(=N)N)NC3=O)C2=O)C(=O)OCCC(C)=CC(=O)N(O)CCCC(NC(=O)CCN2C(=O)CC(SCCOCCOCCOCCOCCC(=O)NCCCC[C@@H]3NC(=O)[C@@H](Cc4ccccc4)NC(=O)[C@H](CC(=O)O)NC(=O)CNC(=O)[C@H](CCCNC(=N)N)NC3=O)C2=O)C(=O)OCCC(C)=CC(=O)N(O)CCCC(NC(=O)CCCCC[N+]2=C(C=CC3=CC(=CC=C4N(C)c5ccc(S(=O)(=O)O)cc5C4(C)C)CCC3)C(C)(C)c3cc(S(=O)(=O)[O-])ccc32)C(=O)OCC1` (stereo partly drawn) [Sulfo-Cy7-FSC-RGD, Sulfo-Cyanine7-FSC-(mal-c(RGDfK)-(PEG4))2], the Fluorescence-determined cell uptake in test [1] is listed as 1.74 ± 0.25%; in test [3], 5.79 ± 0.88%. Also, in test [2] (after administration), the “time of best contrast in fluorescence imaging” value was 24 h. Moreover, the “tumor retention in fluorescence imaging” value in test [2] (two days after injection) is “completely washed out from tumor tissue”. Also, on integrin αvβ3, the half-maximal inhibitory concentration (IC50) (as a rule, the concentration that inhibits the measured activity by half) was 1.13 ± 0.22 nM.

With “nonfluorescent divalent FSC-MG derivative: nonfluorescent divalent FSC-MG derivative, authors' unpublished data used for comparison (EAYGWMDF; Synthetic minigastrin analogue MG11, converted from the printed [D-Glu1,desGlu2-6]-Ala-Tyr-Gly-Trp-Met-Asp-Phe-NH2; Glu1 is D-Glu; C-terminal amide; Two peptides on one Fusarinine C chelator, no fluor)”, the IC50 with human CCK-2 receptor is 0.9 ± 0.2 nM.
